From US6653320B2, “Imidazopyridine derivatives” (Yamanouchi Pharmaceutical Co. Ltd., priority 2000, dated 2003)

Experiments:
HCT116 cells = type: cell-based; settings: HCT116 colon cancer cells, incubation over 72 hours, Alamar Blue, result in words
Method: HCT116 cells from a colon cancer cell line were cultured in McCoy's 5A medium (GIBCO) supplemented with 10% fetal bovine serum. HCT116 cells were inoculated on a 96 well plate (5000 cells/well) followed by overnight incubation. The test compound diluted with the medium was added to the medium in a final concentration of 0.1 to 30 μM (final DMSO concentration, 1%). After incubation for over 72 hours, Alamar Blue reagent was added to the medium. Two hours after the addition, a ratio of fluorescent intensity at an excitation wavelength of 530 nm to that at an emission wavelength of 590 nm was measured to determine the IC50.

bovine p110α = target: T1, bovine p110α (Bos taurus, UniProt P32871); assay: Inhibition of PI3K (p110α subtype); type: biochemical; settings: compared with known PI3K inhibitor LY294002
T1 construct: made in house
T1 sequence (P32871 whole entry): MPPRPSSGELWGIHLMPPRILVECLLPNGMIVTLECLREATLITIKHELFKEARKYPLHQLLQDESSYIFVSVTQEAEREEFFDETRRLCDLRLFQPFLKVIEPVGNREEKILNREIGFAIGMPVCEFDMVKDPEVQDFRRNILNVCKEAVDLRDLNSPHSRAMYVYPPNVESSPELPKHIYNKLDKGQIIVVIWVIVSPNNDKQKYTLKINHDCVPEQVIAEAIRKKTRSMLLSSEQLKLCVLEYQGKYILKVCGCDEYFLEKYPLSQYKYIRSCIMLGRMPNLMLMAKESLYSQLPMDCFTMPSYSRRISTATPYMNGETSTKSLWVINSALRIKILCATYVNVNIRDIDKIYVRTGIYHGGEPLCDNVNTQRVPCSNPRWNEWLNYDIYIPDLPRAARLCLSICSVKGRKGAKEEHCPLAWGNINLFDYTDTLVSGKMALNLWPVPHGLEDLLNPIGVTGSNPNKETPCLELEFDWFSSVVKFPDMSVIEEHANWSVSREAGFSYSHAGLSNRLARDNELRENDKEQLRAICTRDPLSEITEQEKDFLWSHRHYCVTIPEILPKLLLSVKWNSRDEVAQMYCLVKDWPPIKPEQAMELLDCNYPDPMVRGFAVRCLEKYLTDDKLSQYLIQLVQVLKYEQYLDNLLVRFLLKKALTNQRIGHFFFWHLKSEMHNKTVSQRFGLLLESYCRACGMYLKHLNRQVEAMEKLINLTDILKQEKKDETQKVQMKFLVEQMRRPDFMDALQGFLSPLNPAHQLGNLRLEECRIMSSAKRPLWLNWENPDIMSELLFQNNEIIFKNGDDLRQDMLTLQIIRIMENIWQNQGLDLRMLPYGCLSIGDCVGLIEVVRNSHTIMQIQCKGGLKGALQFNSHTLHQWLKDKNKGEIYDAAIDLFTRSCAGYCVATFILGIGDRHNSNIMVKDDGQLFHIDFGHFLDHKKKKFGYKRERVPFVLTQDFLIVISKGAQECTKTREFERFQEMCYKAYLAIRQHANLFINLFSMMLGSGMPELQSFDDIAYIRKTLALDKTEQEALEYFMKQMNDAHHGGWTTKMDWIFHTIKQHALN
Method: The resulting mixture was stirred and then centrifuged. After the organic layer was extracted twice with 150 μl of MeOH/1M HCl (1:1). The radioactivity was measured using Cerenkov light.

A375 cells = assay: Melanoma cell growth inhibition; type: cell-based; settings: Homo sapiens, A-375, incubation over 46 hours, Alamar Blue
Method: A375 cells from a melanoma cell line were cultured in DMEM medium (GIBCO) supplemented with 10% fetal bovine serum. A375 cells at 10,000 cells/100 μl were added to a 96 well plate which contained 1 μl/well of the test compounds (final concentration of 0.001˜30 μM). After incubation for over 46 hours, Alamar Blue reagent was added to the medium (10 μl/well). Two hours after the addition, a ratio of fluorescent intensity at an excitation wavelength of 530 nm to that at an emission wavelength of 590 nm was measured to determine the IC50 of the test compounds in the same manner as in the above examples.

IC50 (A375 cells) [nM]	SMILES	cancer cell growth inhibition activity (HCT116 cells)	PI3K inhibition, strength relative to LY294002 (bovine p110α)
–	Cc1ccc([N+](=O)[O-])cc1S(=O)(=O)n1ccc(-c2c(C)nc3ccc(Br)cn23)n1 [Compound 6, 3-(6-Bromo-2-methylimidazo[1,2-a]pyridin-3-yl)-1H-pyrazol-1-yl 2-methyl-5-nitrophenyl sulfone]	good cancer cell growth inhibition activity	more than 10 times
< 1000	Cc1ccc2ncc(C=NN(C)S(=O)(=O)c3cc([N+](=O)[O-])ccc3C)n2c1 [Compound 99, 1′,2-dimethyl-2′-[(6-methylimidazo[1,2-a]pyridin-3-yl)methylidene]-5-nitrobenzenesulfonohydrazide]	–	–
